Source: patent US10226449B2, “Heterocyclic modulators of lipid synthesis and combinations thereof” (priority 2013, dated 2019)
Read-outs that look alike come from different tables or passages of the source.

Assays:
[1] = Tolerability in the single agent PANC-1 xenograft study; details: 30/20 mg/kg Q5d; 18-day study; PANC-1 xenograft mice, 10 per group
Description: (§1) The day of tumor cell inoculation is denoted as day 0. Drug treatment was initiated when the mean tumor size reached 149 mm^3 (day 15). […] Mice were assigned into treatment groups using a randomized block design based upon their tumor volumes. […] Tumor sizes were measured twice weekly in two dimensions using a caliper, and the volumes were expressed in mm^3 using the formula: V=0.5 a×b2 where a and b were the long and short diameters of the tumor, respectively. The study was terminated 6 hours post the 18th Qd dose on day 32 after tumor inoculation. Tumor growth inhibition (TGI) was calculated as the percentage of tumor growth, relative to tumor size at the start of treatment, in drug-treated groups compared to vehicle-treated groups. The Mann-Whitney U test was used to assess statistical significance of the mean tumor size between drug and vehicle-treated groups.

[2] = mouse, in vivo
Description: as §1

HCV1b replicon = HCV1b replicon antiviral assay (luciferase reporter); format: cell-based; details: Hepatitis C virus; HCV genotype 1b replicon; read-out: HCV GT1b EC50
Description: The antiviral activities of the compounds were assessed using the HCV1b replicon system. […] HCV RNA replicon levels were assessed using the Bright-Glo™ Luciferase Assay System (Promega) to measure replicon-derived Luc activity.

[3] = mouse, in vivo; remark: listed apart in the source
Description: (§2) The day of tumor cell inoculation is denoted as day 0. After inoculation, the animals were checked daily for morbidity and mortality. At the time of routine monitoring, the animals were checked for any effects of tumor growth and treatments on normal behavior such as mobility, visual estimation of food and water consumption, body weight gain/loss (body weights were measured twice weekly), eye/hair matting and any other abnormal signs. […] Mice were assigned into treatment groups using a randomized block design based upon their tumor volumes. […] Tumor sizes were measured twice weekly in two dimensions using a caliper, and the volumes were expressed in mm^3 using the formula: V=0.5*(a*b^2) where a and b were the long and short diameters of the tumor, respectively. The study was terminated 6 hours post the last dose 17-28 days after treatment initiation. Tumor growth inhibition (TGI) was calculated as the percentage of tumor growth, relative to tumor size at the start of treatment, in drug-treated groups compared to vehicle-treated groups. The Mann-Whitney U test was used to assess statistical significance of the mean tumor size between drug and vehicle-treated groups

[4] = mouse, in vivo; remark: listed apart in the source
Description: as §2

PANC-1 xenograft tumors = assay: PANC-1 pancreatic xenograft tumor growth inhibition with gemcitabine; format: in vivo, BALB/c-nude mice
Description: as §2

[5] = system: COLO-205 xenograft tumors; assay: COLO-205 colon xenograft tumor growth inhibition with irinotecan
Description: as §2

CALU-6 xenograft tumors = assay: CALU-6 lung xenograft tumor growth inhibition with paclitaxel; format: in vivo, BALB/c-nude mice; details: for TGI vs. Vehicle: day 21 post treatment start
Description: as §2
The study was terminated 21 days after initiation of treatment.

OVCAR-8 xenograft tumors = assay: OVCAR-8 ovarian xenograft tumor growth inhibition with paclitaxel; format: in vivo, BALB/c-nude mice; details: day 21 post treatment start
Description: as §2
The study was terminated 28 days after initiation of treatment.

[6] = mouse, in vivo; remark: listed apart in the source
Description: as §2

[7] = irinotecan 10 mg/kg ip Q4d, single agent

C=C1C(=O)O[C@@H](CCCCCCCC)[C@@H]1C(=O)O (relative stereo) [Compound C75, trans-4-methylene-2-octyl-5-oxotetrahydrofuran-3-carboxylic acid]
mice died from drug-related toxicity [1]: Six of the ten mice in the C75 treatment group died | tolerability in PANC-1 xenograft tumor-bearing mice [2]: drug-induced weight loss and toxicity

CCN(CC)c1cc(C)c(C(=O)N2CCC(c3ccc(C#N)cc3)CC2)cc1-c1nnc(C)[nH]1 [Compound 129, 4-(1-(4-(diethylamino)-2-methyl-5-(5-methyl-4H-1,2,4-triazol-3-yl)benzoyl)piperidin-4-yl)benzonitrile]
EC50 (HCV1b replicon): 2150 nM

Cc1cc(C)c(-c2[nH]c(C3CCOCC3)nc2C)cc1C(=O)N1CC(F)(c2ccc(C#N)cc2)C1 [Compound 167, 4-(1-(2,4-Dimethyl-5-(4-methyl-2-(tetrahydro-2H-pyran-4-yl)-1H-imidazol-5-yl)benzoyl)-3-fluoroazetidin-3-yl)benzonitrile]
EC50 (HCV1b replicon): 25 nM

Cc1cc(C)c(-c2[nH]nc(C)c2C)cc1C(=O)N1CC(c2ccc(C#N)cc2)C1 [Compound 242, 4-(1-(5-(3,4-Dimethyl-1H-pyrazol-5-yl)-2,4-dimethylbenzoyl)azetidin-3-yl)benzonitrile]
Body Weight Change (mouse, in vivo, po, 100 mg/kg): −12.0% | tolerability in CALU-6 xenograft tumor-bearing mice [3]: well tolerated as a single or combination agent | tolerability in PANC-1 xenograft tumor-bearing mice [4]: well tolerated as a single or combination agent | TGI vs. Vehicle (PANC-1 xenograft tumors; Compound 242 30 mg/kg po Qd for 18 days): 9% | TGI vs. Vehicle ([5]; Compound 242 30 mg/kg po Qd for 20 days): 6% | TGI vs. Vehicle (CALU-6 xenograft tumors; Compound 242 60 mg/kg po Qd): 14% | TGI vs. Vehicle (CALU-6 xenograft tumors; Compound 242 100 mg/kg po Qd): 0% | tumor growth inhibition, range over dose groups (CALU-6 xenograft tumors; Compound 242 single agent at 30, 60, or 100 mg/kg once daily for 21 days): 0-19% | TGI vs. Vehicle (OVCAR-8 xenograft tumors; Compound 242 30 mg/kg po Qd): 46% | TGI vs. Vehicle (OVCAR-8 xenograft tumors; Compound 242 100 mg/kg po Qd): 74% | tolerability in OVCAR-8 xenograft tumor-bearing mice [6]: well tolerated as a single or combination agent

Cc1ccc(C(=O)N2CCC(c3ccc(C#N)cc3)CC2)cc1-c1[nH]nc(Cl)c1C [Compound 253, 4-(1-(3-(3-Chloro-4-methyl-1H-pyrazol-5-yl)-4-methylbenzoyl)piperidin-4-yl)benzonitrile]
EC50 (HCV1b replicon): 220 nM

Nc1ccn([C@@H]2O[C@H](CO)[C@@H](O)C2(F)F)c(=O)n1 [Gemcitabine, gemcitabine, reference compound]
TGI vs. Vehicle (PANC-1 xenograft tumors; gemcitabine 10 mg/kg ip, single agent): 31%

CCc1c2c(nc3ccc(OC(=O)N4CCC(N5CCCCC5)CC4)cc13)-c1cc3c(c(=O)n1C2)COC(=O)[C@]3(O)CC [Irinotecan, irinotecan, reference compound]
Body Weight Change [7]: −10.2% | body weight loss (single agent irinotecan group, 10 mg/kg Q4d): 10.2% | TGI vs. Vehicle [5, 7]: 57%

CC(=O)O[C@H]1C(=O)[C@@]2(C)[C@H]([C@H](OC(=O)c3ccccc3)[C@]3(O)C[C@H](OC(=O)[C@H](O)[C@@H](NC(=O)c4ccccc4)c4ccccc4)C(C)=C1C3(C)C)[C@]1(OC(C)=O)CO[C@@H]1C[C@@H]2O [Paclitaxel, paclitaxel, reference compound]
TGI vs. Vehicle (CALU-6 xenograft tumors; paclitaxel 10 mg/kg ip Q4d): 63% | TGI vs. Vehicle (OVCAR-8 xenograft tumors; paclitaxel 10 mg/kg ip Q4d): 83%
